From patent publication US20130071535A1, “FOOD AND FLAVORANT COMPOSITIONS COMPRISING RENEWABLY-BASED, BIODEGRADABLE 1,3-PROPANEDIOL” (DuPont Tate & Lyle Bio Products Company, LLC, priority 2006, published 2013)

Key:
Viscosity of formulation = type: physicochemical; conditions: cosmetic emulsion of Example 1 with other glycol instead of Bio-PDO
human skin [1] = assay: Second human skin patch test; type: in vivo
Excerpt: (§1) Based on these studies PDO is not expected to be a skin irritant or sensitizer in humans.

human skin [2] = assay: Human skin patch test (first); type: in vivo; conditions: approximately 100 subjects; 5, 25, and 50% PDO
Excerpt: as §1

With `CC(CO)CO` [2-methyl-1,3-propanediol] the “viscosity of the cosmetic emulsion with the comparison glycol” value (shortened to “viscosity of the cosmetic emulsion”) (Viscosity of formulation) was 9600 cps.
In the case of `CC(O)CO` (stereo not drawn) [propylene glycol], the “patch test irritation and cumulative irritation for human skin” value (human skin [1]; 25, 50, and 75% (pH 7)) is reported as “patch test irritants and cumulative irritants” and the “viscosity of the cosmetic emulsion” value (Viscosity of formulation) is reported as 12600 cps.
For `CC(O)CCO` (stereo not drawn) [1,3-butylene glycol], the “viscosity of the cosmetic emulsion” value (Viscosity of formulation) was 6000 cps.
In the case of `OCCCO` [Bio-PDO, 1,3-propanediol], the “skin reactions indicative of irritation or sensitization” value (human skin [2]) is reported as “did not cause any skin reactions indicative of irritation or sensitization” and the “clinically significant dermal irritation or sensitization reactions” value (human skin [1]; 25, 50, and 75% PDO at pH 7, or 75% PDO at pH 4 and 9) is reported as “did not produce any clinically significant dermal irritation or sensitization reactions”.
